Data from patent US20230218539A1, “TRANSDERMAL THERAPEUTIC SYSTEM COMPRISING THE INGREDIENT ROTIGOTINE AND AT LEAST ONE NON-AMINE-RESISTANT SILICONE ADHESIVE” (Luye Pharma Switzerland AG, priority 2020, published 2023).

Assays:
[1] = as described in WO 2009/068520; cited from earlier work
[2] = Solubility of rotigotine in matrix components; type: physicochemical

SMILES | Thermodynamic stability of the polymorphic form [1] | Solubility in a crystallization inhibitor such as polyvinylpyrrolidone [2] | Solubility in silicone adhesives [2]
CCCN(CCc1cccs1)[C@H]1CCc2c(O)cccc2C1 [polymorphic form II] | thermodynamically more stable than the polymorphic form I |  | 
CCCN(CCc1cccs1)[C@H]1CCc2c(O)cccc2C1 [Rotigotine] |  | good soluble | very poorly soluble
